Laboratory results reported in PMC8379256, “A xanthene derivative, DS20060511, attenuates glucose intolerance by inducing skeletal muscle-specific GLUT4 translocation in mice” (Communications Biology, 2021).
Where “and” joins values, the source holds several entries; their conditions need not be identical. Equal entries are not always repeated.

Experiments:
L6-GLUT4myc myotubes = experiment: Fluorescence immunostaining of cell surface GLUT4 and actin fibers in L6-GLUT4myc myotubes; type: cell-based, rat; conditions: 30 μM DS20060511 or 100 nM insulin; Fig. 4c
Experimental: Arrowheads indicate the characteristic ruffled structure of the polymerized actin and actin-associated surface GLUT4. d GLUT4 translocation activity of 30 μM DS20060511 or 100 nM insulin in the presence of the actin polymerization inhibitor, Latrunculin B, at the indicated concentrations. Values shown are means ± SEM, n = 3. **P < 0.01 vs. 0 nM Latrunculin B by one-way ANOVA followed by Dunnett’s test. e Concentration-dependent insulin-stimulated GLUT4 translocation in L6-GLUT4myc myotubes with or without 30 μM DS20060511 (n = 3). f Concentration-dependent DS20060511-stimulated 2-DG uptake with 100 nM insulin in isolated muscles from C57BL/6 mice (n = 3). Values shown are means ± SEM. ***P < 0.001 by one-way ANOVA followed by Tukey’s test. g Blood glucose levels during ITT in STZ-treated C57BL/6 mice (n = 6–7). Vehicle or indicated dose of DS20060511 was given orally at the same time as 0.1 U kg^−1 insulin injection intraperitoneally. Values shown are means ± SEM. *P < 0.05 vs. vehicle by one-way ANOVA followed by Dunnett’s test. c Scale bar in all panels, 5 μm. Uncropped blots for a and b can be found in Supplementary Fig. 6.
Differentiated L6-GLUT4myc myotubes were prepared in a collagen-coated four-well chamber slide. After serum starvation for 3 h, the cells were stimulated with insulin or DS20060511 for 15 min at 37 °C. Cells were rinsed with cold PBS(+), fixed with 4% paraformaldehyde for 30 min on ice and blocked with 1% BSA and 10% normal goat serum in PBS(+) for 30 min at room temperature. Surface GLUT4myc staining was carried out without cell membrane permeabilization. Cells were incubated with anti-c-Myc antibody for 30 min at room temperature, followed by treatment with 0.1% Triton-X. After blocking, the cells were incubated with Alexa 488-conjugated secondary antibody and Alexa 594-conjugated phalloidin for 30 min at room temperature. Fluorescence images were obtained with a Leica TSC-SP8 confocal microscope. Specimens were scanned along the z-axis and a single-composite image was generated by the maximal projection method using the LAS software (Leica Microsystems, Wetzlar, Germany).

isolated skeletal muscle = experiment: 2-DG uptake in muscles isolated from NC-fed and HFD-fed mice; parameters: species or system mouse; conditions: for Raio: 2-DG uptake in isolated muscles; for Raio / 2DOG Trn / IC 2DOG: individual muscles; for 2DOG Trn / IC 2DOG: isolated muscles
Experimental: Fig. 8 Acute and chronic DS20060511 treatment improves glucose intolerance in HFD-fed and db/db mice. a Blood glucose and plasma insulin levels during an oral GTT in normal-chow (NC)- and high-fat diet (HFD)-fed mice (n = 5). Vehicle or DS20060511 (30 mg kg^−1) was given orally 15 min before the oral glucose administration (1.5 g kg^−1). Values shown are means ± SEM. *P < 0.05, **P < 0.01, ***P < 0.001 vs. the HFD vehicle by the t-test. b Effects of 10 μM DS20060511 and 100 nM insulin on 2-DG uptake in muscles isolated from NC-fed (n = 6) and HFD-fed (n = 5) mice. Values shown are means ± SEM. **P < 0.01 by one-way ANOVA followed by Tukey’s test. c, d Changes in the blood glucose levels and AUC on day 1 and day 28 during refeeding (n = 6) in db/db mice treated chronically with DS20060511 (10 mg kg^−1 day^−1). Values shown are means ± SEM. *P < 0.05, **P < 0.01, ***P < 0.001 vs. vehicle by the t-test. e Change of the HbA1c levels in the db/db (n = 6) mice at 4 weeks. Values shown are means ± SEM. *P < 0.05 vs. vehicle by the t-test.
C57BL/6 and db/db mice were purchased from CLEA Japan, Tokyo, Japan. GLUT4- knockout mice were generated at RIKEN BioResource Center, Tsukuba, Japan, according to a previously described method. eNOS-knockout mice were kindly provided by Dr. Masato Tsutsui[41],[42]. The mice were group-housed under controlled illumination (12:12 h light-dark cycle) and temperature (23 ± 2 °C) conditions and given free access to normal chow and water, unless otherwise specified. The HFD-fed obese mice were prepared by feeding C57BL/6 mice a HFD for at least 8 weeks from 6 weeks of age. […] Male mice were used for all the experiments in this study. The animal care and experimental procedures used in the study were approved by The University of Tokyo Animal Care Committee (Approval number: 27-3), and the study was carried out in accordance with the Animal Experimentation Guidelines of Daiichi Sankyo Co., Ltd (Approved number: 20000411).
The soleus or EDL muscle was removed from anesthetized mice (isoflurane anesthesia) that had been denied access to food overnight, and incubated with oxygenated (95% O2/5% CO2) Krebs-Henseleit Bicarbonate (KHB) buffer (118.1 mM NaCl, 4.7 mM KCl, 1.1 mM KH2PO4, 1.2 mM MgSO4, 2.5 mM CaCl2, and 25 mM NaHCO3, pH7.4) in the presence of 11.1 mM glucose at 37 °C. The muscle specimens were then treated with the indicated concentrations of the compounds in KHB buffer containing 11.1 mM glucose and 8 mM mannitol for 10 min at 37 °C. Thereafter, the muscles were rinsed with KHB buffer containing 8 mM mannitol and the compounds for 5 min at 37 °C. Lastly, the muscles were treated with the compounds in KHB buffer containing 1 mM 2-DG (with 0.3 μCi mL^−1 [^3H]-2-DG) and 8 mM mannitol (with 0.03 μCi mL^−1 [^14C]-mannitol) for 10 min at 37 °C. After the muscle specimens were washed, they were lysed with 1 N NaOH and neutralized with 1 N HCl. The ^14C- and ^3H-specific activities were counted with a liquid scintillation counter. The specific uptake of 2-DG was calculated by subtracting the nonspecific uptake of mannitol from the total 2-DG uptake. To investigate the effects of muscle contraction, muscle contraction was induced by electrical stimulation with 5 Hz (1 ms pulse duration, 100 V) for 10 min (SEN-5201, Nihon Koden, Tokyo, Japan).

[1] = HFD, DS20060511 10 μM plus Insulin 100 nM
[2] = HFD, DS20060511 0 μM, Insulin 100 nM
[3] = NC, DS20060511 0 μM, Insulin 100 nM

| Compound | actin polymerization (L6-GLUT4myc myotubes) | staining of GLUT4 at the cell surface (L6-GLUT4myc myotubes) | Raio (isolated skeletal muscle; [1]) | suppression of insulin-induced 2-DG uptake in isolated skeletal muscle (isolated skeletal muscle; HFD-fed mice, 10 μM DS20060511, 100 nM insulin) | 2DOG Trn (isolated skeletal muscle; HFD, DS20060511 10 μM plus Insulin 100 nM, incubation time 10 min) | 2DOG Trn (isolated skeletal muscle; [1]) | IC 2DOG (isolated skeletal muscle; [1]) | Raio (isolated skeletal muscle; [2]) | Raio (isolated skeletal muscle; [3]) | 2DOG Trn (isolated skeletal muscle; HFD, DS20060511 0 μM, Insulin 100 nM, incubation time 10 min) | 2DOG Trn (isolated skeletal muscle; [2]) | IC 2DOG (isolated skeletal muscle; [2]) | 2DOG Trn (isolated skeletal muscle; NC, DS20060511 0 μM, Insulin 100 nM, incubation time 10 min) | 2DOG Trn (isolated skeletal muscle; [3]) | IC 2DOG (isolated skeletal muscle; [3]) |
| --- | --- | --- | --- | --- | --- | --- | --- | --- | --- | --- | --- | --- | --- | --- | --- |
| COc1ccc2c(C)c(C(=O)O)ccc2c1C1C2=C(CC(C)(C)CC2=O)OC2=C1C(=O)CC(C)(C)C2 [DS20060511] | observed only following insulin treatment | strong staining of GLUT4 at the cell surface | 2.30 and 2.20 and 2.00 and 1.46 and 1.88 | completely restored | 45.7 µM/min and 43.8 µM/min and 39.8 µM/min and 37.4 µM/min | 457 nmol/mL and 438 nmol/mL and 436 nmol/mL and 374 nmol/mL | 292 nmol/g and 276 nmol/g and 268 nmol/g and 283 nmol/g and 257 nmol/g | – | – | – | – | – | – | – | – |
| Insulin: Insulin (Humulin, Eli Lilly) in the in vivo experiments; Insulin solution human (I9278, Sigma–Aldrich) in the in vitro experiments | observed only following insulin treatment | strong staining of GLUT4 at the cell surface | – | – | – | – | – | 1.28 and 1.46 and 1.65 and 1.16 and 0.85 | 2.15 and 2.48 and 1.82 and 1.55 and 1.68 and 2.28 | 25.5 µM/min and 29.1 µM/min and 32.9 µM/min and 23.1 µM/min and 14.4 µM/min | 255 nmol/mL and 291 nmol/mL and 329 nmol/mL and 324 nmol/mL and 259 nmol/mL | 163 nmol/g and 186 nmol/g and 216 nmol/g and 214 nmol/g and 174 nmol/g | 27.4 µM/min and 29.7 µM/min and 40.3 µM/min and 38.9 µM/min and 44.9 µM/min and 32.9 µM/min | 274 nmol/mL and 297 nmol/mL and 403 nmol/mL and 389 nmol/mL and 449 nmol/mL and 329 nmol/mL | 192 nmol/g and 210 nmol/g and 264 nmol/g and 259 nmol/g and 303 nmol/g and 223 nmol/g |
